# PMC4460250, “Systems Pharmacology Dissecting Holistic Medicine for Treatment of Complex Diseases: An Example Using Cardiocerebrovascular Diseases Treated by TCM” (Evidence-based Complementary and Alternative Medicine : eCAM, 2015)
# Details: in vivo
row,Compound,Class(High: HIA value ≥0.7; Low: HIA value < 0.7)
1,COC(=O)C(c1ccccc1Cl)N1CCc2sccc2C1 (stereo in doubt) [Clopidogrel(R)],Low (key: High: HIA value ≥0.7; Low: HIA value < 0.7)
2,CC(C)NC[C@@H](O)COc1ccc(COCCOC(C)C)cc1 [Bisoprolol(R)],High (key: High: HIA value ≥0.7; Low: HIA value < 0.7)
3,CC(C)NC[C@H](O)COc1ccc(COCCOC(C)C)cc1 [Bisoprolol(S)],High (key: High: HIA value ≥0.7; Low: HIA value < 0.7)
4,ClC(Cl)Cl [Chloroform],High (key: High: HIA value ≥0.7; Low: HIA value < 0.7)
5,CN1C(=O)CN=C(c2ccccc2)c2cc(Cl)ccc21 [Diazepam],High (key: High: HIA value ≥0.7; Low: HIA value < 0.7)
6,O=C(O)Cc1ccccc1Nc1c(Cl)cccc1Cl [Diclofenac],High (key: High: HIA value ≥0.7; Low: HIA value < 0.7)
7,CCOc1ccc2c3c1O[C@H]1[C@@H](O)C=C[C@H]4[C@@H](C2)N(C)CC[C@@]341 [Ethylmorphine],High (key: High: HIA value ≥0.7; Low: HIA value < 0.7)
8,Cc1cnc(C(=O)NCCc2ccc(S(=O)(=O)NC(=O)NC3CCCCC3)cc2)cn1 [Glipizide],High (key: High: HIA value ≥0.7; Low: HIA value < 0.7)
9,NS(=O)(=O)c1cc2c(cc1Cl)NCNS2(=O)=O [Hydrochlorothiazide],Low (key: High: HIA value ≥0.7; Low: HIA value < 0.7)
10,C#C[C@]1(O)CC[C@H]2[C@@H]3CCC4=CC(=O)CC[C@@H]4[C@H]3CC[C@@]21CC [Levonorgestrel],High (key: High: HIA value ≥0.7; Low: HIA value < 0.7)
11,CCN(CC)CCNC(=O)c1cc(Cl)c(N)cc1OC [Metoclopramide],High (key: High: HIA value ≥0.7; Low: HIA value < 0.7)
12,Nc1cc(N2CCCCC2)nc(N)[n+]1[O-] [Minoxidil],High (key: High: HIA value ≥0.7; Low: HIA value < 0.7)
13,CN1CC[C@]23c4c5ccc(O)c4O[C@H]2[C@@H](O)C=C[C@H]3[C@H]1C5 [Morphine],High (key: High: HIA value ≥0.7; Low: HIA value < 0.7)
14,CCN(CC)CCOC(=O)C(Cc1cccc2ccccc12)CC1CCCO1 (stereo not drawn) [Nafronyl],High (key: High: HIA value ≥0.7; Low: HIA value < 0.7)
15,O=C1CN=C(c2ccccc2)c2cc(Cl)ccc2N1 [Nordazepam],High (key: High: HIA value ≥0.7; Low: HIA value < 0.7)
16,C#CC1(O)CC[C@H]2[C@@H]3CCC4=CC(=O)CC[C@@H]4[C@H]3CC[C@@]21CC (stereo partly drawn) [Norgestrel],High (key: High: HIA value ≥0.7; Low: HIA value < 0.7)
17,O=C1Nc2ccc(Cl)cc2C(c2ccccc2)=N[C@@H]1O [Oxazepam(R)],High (key: High: HIA value ≥0.7; Low: HIA value < 0.7)
18,O=C1Nc2ccc(Cl)cc2C(c2ccccc2)=N[C@H]1O [Oxazepam(S)],High (key: High: HIA value ≥0.7; Low: HIA value < 0.7)
19,C[C@]12C=CC(=O)C=C1CC[C@@H]1[C@@H]2[C@@H](O)C[C@@]2(C)[C@H]1CC[C@]2(O)C(=O)CO [Prednisolone],High (key: High: HIA value ≥0.7; Low: HIA value < 0.7)
20,CCCc1cc(=O)[nH]c(=S)[nH]1 [Propylthiouracil],High (key: High: HIA value ≥0.7; Low: HIA value < 0.7)
21,O=C(O)c1ccccc1O [Salicylic acid],High (key: High: HIA value ≥0.7; Low: HIA value < 0.7)
22,Cc1cc(NS(=O)(=O)c2ccc(N)cc2)no1 [Sulfamethoxazole],High (key: High: HIA value ≥0.7; Low: HIA value < 0.7)
23,CN1C(=O)[C@@H](O)N=C(c2ccccc2)c2cc(Cl)ccc21 [Temazepam(R)],High (key: High: HIA value ≥0.7; Low: HIA value < 0.7)
24,CN1C(=O)[C@H](O)N=C(c2ccccc2)c2cc(Cl)ccc21 [Temazepam(S)],High (key: High: HIA value ≥0.7; Low: HIA value < 0.7)
25,Cc1nnc2n1-c1ccc(Cl)cc1C(c1ccccc1Cl)=NC2 [Triazolam],High (key: High: HIA value ≥0.7; Low: HIA value < 0.7)

# Details: in vivo; cited from earlier work
row,Compound,HIA(Human Intestinal Absorption)
1,COC(=O)C(c1ccccc1Cl)N1CCc2sccc2C1 (stereo in doubt) [Clopidogrel(R)],0.5
2,C[C@@H]1CN(c2c(F)c(N)c3c(=O)c(C(=O)O)cn(C4CC4)c3c2F)C[C@H](C)N1 [Sparfloxacin],0.9
3,CC(=O)S[C@@H]1CC2=CC(=O)CC[C@]2(C)[C@H]2CC[C@@]3(C)[C@@H](CC[C@@]34CCC(=O)O4)[C@H]12 [Spironolactone],0.73
4,Cc1cn([C@H]2C=C[C@@H](CO)O2)c(=O)[nH]c1=O [Stavudine],1
5,[H]/N=C(/N)N[C@H]1[C@H](O)[C@@H](O)[C@H](O[C@@H]2O[C@@H](C)[C@](O)(C=O)[C@H]2O[C@@H]2O[C@@H](CO)[C@H](O)[C@@H](O)[C@@H]2NC)[C@@H](N/C(N)=N\[H])[C@@H]1O [Streptomycin],0.01
6,Cc1nnc(NS(=O)(=O)c2ccc(N)cc2)s1 [Sulfamethizole],0.85
7,O=C(O)c1cc(/N=N/c2ccc(S(=O)(=O)Nc3ccccn3)cc2)ccc1O [Sulfasalazine],0.62
8,O=C1C(CC[S+]([O-])c2ccccc2)C(=O)N(c2ccccc2)N1c1ccccc1 (stereo not drawn) [Sulfinpyrazone],1
9,Cc1cc(NS(=O)(=O)c2ccc(N)cc2)nc(C)n1 [Sulfisomidine],0.9
10,Cc1noc(NS(=O)(=O)c2ccc(N)cc2)c1C [Sulfisoxazole],0.95
11,CC1=C(CC(=O)O)c2cc(F)ccc2/C1=C\c1ccc([S+](C)[O-])cc1 (stereo not drawn) [Sulindac],0.9
12,O=C(O)c1cc(/N=N/c2ccc(S(=O)(=O)Nc3ccccn3)cc2)ccc1O [Sulphasalazine],0.59
13,CNS(=O)(=O)Cc1ccc2[nH]cc(CCN(C)C)c2c1 [Sumatriptan],0.57
14,Nc1c2c(nc3ccccc13)CCCC2 [Tacrine],0.95
15,CCOc1ccccc1OCCN[C@H](C)Cc1ccc(OC)c(S(N)(=O)=O)c1 [Tamsulosin],1
16,CC[C@H]1OC(=O)[C@H](C)C(=O)[C@H](C)[C@@H](O[C@@H]2O[C@H](C)C[C@H](N(C)C)[C@H]2O)[C@](C)(OC)C[C@@H](C)C(=O)[C@H](C)[C@H]2N(CCCCn3cnc(-c4cccnc4)c3)C(=O)O[C@]12C [Telithromycin],0.9
17,CCCc1nc2c(C)cc(-c3nc4ccccc4n3C)cc2n1Cc1ccc(-c2ccccc2C(=O)O)cc1 [Telmisartan],0.9
18,CN1C(C(=O)Nc2ccccn2)=C(O)c2sccc2S1(=O)=O [Tenoxicam],1
19,CN(C/C=C/C#CC(C)(C)C)Cc1cccc2ccccc12 [Terbinafine],0.8
20,COc1cc2c(cc1OC)C1CC(=O)C(CC(C)C)CN1CC2 (stereo not drawn) [Tetrabenazine],1
21,c1ccc2[nH]c(-c3cscn3)nc2c1 [Thiabendazole],0.9
22,Cc1ccsc1C(=CCCN1CCC[C@@H](C(=O)O)C1)c1sccc1C [Tiagabine],0.9

row,Compound,HIA(Human Intestinal Absorption)
1,C#C[C@]1(O)CC[C@H]2[C@@H]3[C@H](C)CC4=C(CCC(=O)C4)[C@H]3CC[C@@]21C [Tibolone],0.9
2,Clc1ccccc1CN1CCc2sccc2C1 [Ticlopidine],0.8
3,O=P(O)(O)C(Sc1ccc(Cl)cc1)P(=O)(O)O [Tiludronic_acid],0.06
4,NC[C@H]1O[C@H](O[C@H]2[C@H](O)[C@@H](O[C@H]3O[C@H](CO)[C@@H](O)[C@H](N)[C@H]3O)[C@H](N)C[C@@H]2N)[C@H](N)C[C@@H]1O [Tobramycin],0.01
5,Cc1ccc(C(=O)c2ccc(CC(=O)O)n2C)cc1 [Tolmetin],0.99
6,Cc1ccc(O)c([C@H](CCN(C(C)C)C(C)C)c2ccccc2)c1 [Tolterodine],0.77
7,CC1(C)O[C@@H]2[C@@H](CO[C@@]3(COS(N)(=O)=O)OC(C)(C)O[C@@H]23)O1 [Topiramate],0.86
8,Cc1cccc(Nc2ccncc2S(=O)(=O)NC(=O)NC(C)C)c1 [Torasemide],0.96
9,CN(C)CCOc1ccc(/C(=C(/CCCl)c2ccccc2)c2ccccc2)cc1 [Toremifene],1
10,NC[C@H]1CC[C@H](C(=O)O)CC1 [Tranexamic_acid],0.55
11,C[C@]12C=CC(=O)C=C1CC[C@H]1[C@@H]3C[C@@H](O)[C@](O)(C(=O)CO)[C@@]3(C)C[C@H](O)[C@@]12F [Triamcinolone],1
12,COc1cc(Cc2cnc(N)nc2N)cc(OC)c1OC [Trimethoprim],0.97
13,COc1ccccc1N1CCN(CCCNc2cc(=O)n(C)c(=O)n2C)CC1 [Urapidil],0.78
14,CCCC(CCC)C(=O)O [Valproic_acid],0.98
15,C=CC(N)CCC(=O)O (stereo not drawn) [Vigabatrin],0.58
16,CC1=C(/C=C/C(C)=C/C=C/C(C)=C/CO)C(C)(C)CCC1 [Vitamin_A],0.8
17,Nc1ccn([C@H]2CC[C@@H](CO)O2)c(=O)n1 [Zalcitabine],0.85
18,CC(=O)N[C@H]1[C@H]([C@H](O)[C@H](O)CO)OC(C(=O)O)=C[C@@H]1N=C(N)N [Zanamivir],0.02
19,Cc1cn([C@H]2C[C@H](N=[N+]=[N-])[C@@H](CO)O2)c(=O)[nH]c1=O [Zidovudine],1
20,O=C1Cc2cc(CCN3CCN(c4nsc5ccccc45)CC3)c(Cl)cc2N1 [Ziprasidone],0.6
21,Cc1cc(CC(=O)O)n(C)c1C(=O)c1ccc(Cl)cc1 [Zomepirac],1
22,NS(=O)(=O)Cc1noc2ccccc12 [Zonisamide],1
